Results from US6632793B1, “Immunological activity for a peptide of the limulus anti-LPS factor” (Centro de Ingenieria Genetica y Biotecnologia, priority 1997, dated 2003).
Where a SMILES comes first, the peptide text is derived from it.

Tests used:
[1] = test system: NO production in peritoneal macrophages; assay: NO2- secretion (Greiss) in LPS-activated peritoneal macrophages pre-incubated with peptide; assay type: cell-based, Balb/c mice; conditions: 5 μM pre-incubation 18 h, then LPS 1 μg/ml 72 h; FIG. 7
Description: (§1) Peritoneal elicited cells were obtained from Balb/c mice (CENPALAB, Havana, Cuba). Primary mouse macrophages was collected from the peritoneal cavity 4 days after intraperitoneal injection with 1 ml of 4% Brewer's thioglicollate broth. Cell were maintained in RPMI 1640 supplemented with 10% heat-inactivated fetal bovine serum, 2 mM L-glutamine, 200 units/ml penicillin, and 200 μg/ml streptomycin at 37° C. in 5% CO2/[…].
Assay for Secretion of NO2-(Jin, F^29, Nathan, C, Radzioch, 0, and Ding, A. Cell, 1997, 88: 417-426). Cells were plated in 96-well plates at 2×10^6 cells /ml in 200 μl of medium and incubated at 37° C. for 2 h, then non-adherent cells were removed by repeated washing with PBS. […] Cell viability was assessed by mitochondrial-dependent reduction of MTT to formazan (Szabo^30, c, Mitchell, J A, Gross, S S, Thiemermann, C, and Vane, JR. J. Pharm. Exp. Therap., 1992, 265: 674-80). […] Absorbance at 540 nm was recorded in a microplate reader (SUMA) with sodium nitrite as standards (Green^28, L C, Wagner, D A, Glogowski, J, et al. Anal Biochem 1982; 126: 131-8). […]
FIG. 7: Regulatory effect of LALF derived-peptide on NO production in stimulated peritoneal macrophages. […] Levels of NO were measured in the cells cultured supernatants using the Greiss method.

[2] = test system: TNF-α in peritoneal macrophages; assay: TNF-α production in LPS-activated peritoneal macrophages pre-incubated with peptide; assay type: cell-based, Balb/c mice; conditions: 5 μM pre-incubation 18 h, then LPS 1 μg/ml; 1-24 h; FIG. 6
Description: as §1
TNF-α assay: Cells were plated in 96-well plates at 2×10^6 cells/ml in 200 μl of medium and incubated at 37° C. for 2 h. Non-adherent cells were removed by repeated washing with PBS. Macrophages were pre-incubated with 5 μM of LALF peptide during 18 h, afterward were washed with RPMI medium in order to eliminate the peptide. Then macrophages were treated with LPS of E. coli 0111:B4, Sigma (1 μg/ml). TNF-α was determined in supematants from cultured cells at the time 1 h, 2 h, 4 h, 6 h and 24 h used a kit of ELISA kindly provided by [Dr. W. Buurman Univ. Hosp. Maastrich, Netherlands].
FIG. 6: Regulatory effect of LALF derived-peptide on TNF-α production in stimulated peritoneal macrophages. The macrophages were pretreated with 5 μM of LALF peptide during 18 hours and then the cells were activated with 1 μg of E. coli LPS. TNF-α was measured in the cells cultured supernatants at different time.

[3] = test system: bovine enterovirus on cell line MDBK; assay: Antiviral effect: inhibition of the cytopathic effect of bovine enterovirus on cell line MDBK; assay type: cell-based; conditions: 10 μM, 20 μM and 40 μM; FIG. 5
Description: Determination of the antiviral activity was estimate by means of the inhibition of the cytopathic effect produced by a virus on cell line MDBK, essentially as is described in the example 1. The cells used in this approach were MDBK a kidney normal bovine cells line [ATCC No. 6071], which are infected with […] of bovine enterovirus. Increasing quantities of LALF peptide were used in order to induced protection in the-cells: 10 μM, 20 μM and 40 μM. In this case serial dilution's of human α-IFN 70 000 IU/ml (MRI, Freeze-dried Reference Human Recombinant Alpha Interferon) was used as standard in order to define unit of antiviral activity. One unit of antiviral activity is defining as the quantity of IFN able to produce a 50% inhibition of the viral replication.
The cells were treated with increasing quantities of peptide during 18 hours. Afterwards, the cells were challenged with a bovine enterovirus. Antiviral activity is referred as U/ml α-IFN.

[4] = In vivo toxicity after intravenous injection in mice (behavior, survival); parameters: species or system mice BalB/c
Description: This approach was developed in mice BalB/c between 6-8 old. The mice were injected intravenously with 50 μg of peptide in 0.1 ml [2.5 mg/kg of body weight] or saline solution as a control. The behavior of animals was observed each 4 hours during 24 h. Survival was followed for one week. Blood was collected for TNF-α quantification from the retroorbital sinus at the time 0 h. 6 h, 24 h and 48 h in the control group and peptide treated-mice. The concentration of TNF-α in mouse serum was determined using a specific ELISA kindly provided by Dr. W. Buurman (University Hospital Maastrich, The Netherlands).

SMILES: CC[C@H](C)[C@H](NC(=O)[C@H](CCCNC(=N)N)NC(=O)[C@H](Cc1ccc(O)cc1)NC(=O)[C@H](Cc1c[nH]cn1)NC(=O)[C@@H](N)CS)C(=O)N[C@@H](CCCCN)C(=O)N1CCC[C@H]1C(=O)N[C@H](C(=O)N[C@@H](Cc1ccccc1)C(=O)N[C@@H](CCCNC(=N)N)C(=O)N[C@@H](CCCNC(=N)N)C(=O)N[C@@H](CC(C)C)C(=O)N[C@@H](CCCCN)C(=O)N[C@@H](Cc1c[nH]c2ccccc12)C(=O)N[C@@H](CCCCN)C(=O)N[C@@H](Cc1ccc(O)cc1)C(=O)N[C@@H](CCCCN)C(=O)NCC(=O)N[C@@H](CCCCN)C(=O)N[C@@H](Cc1ccccc1)C(=O)N[C@@H](Cc1c[nH]c2ccccc12)C(=O)N[C@@H](CS)C(=O)O)[C@@H](C)O [LALF] (H-CHYRIKPTFRRLKWKYKGKFWC-OH)
- NO production in LPS-activated macrophages (in words) [1]: up regulated
- TNF levels in LPS-activated macrophages (in words) [2]: down regulated
- Protection of cell line MDBK against bovine enterovirus (in words) [3]: able to induce protection in the cell line MDBK in a doses dependent manner
- Toxicity in vivo (in words) ([4]; 50 μg [2.5 mg/kg] intravenously): not toxic in vivo
- Survival after intravenous injection (in words) ([4]; 50 μg in 0.1 ml [2.5 mg/kg] intravenously, followed one week): All mice [10 animals/group] survivor beyond of one week
